Reference: PMC11671526, “β-caryophyllene sensitizes hepatocellular carcinoma cells to chemotherapeutics and inhibits cell malignancy through targeting MAPK signaling pathway” (Frontiers in Pharmacology, 2024)

System: HepG2 cells
Experiment: RNA-seq transcriptome analysis of differentially expressed genes
Assay type: cell-based, human
Details: BCP vs control HepG2
Description: The quality and concentration of RNA were examined by MOPS RNA electrophoresis and Eppendorf BioSpectrometer. The transcriptome analysis was performed by BGI-Wuhan China. The RNA-seq dataset of this study is accessible in the Gene Expression Omnibus (GEO) with an access number of GSE276099. The sequence library for each sample was prepared using the BGISEQ-500 platform with a 50-bp single-end (SE50) format. […]2.2.1) was used to align the clean reads to the reference genome and alignment of the clean reads to the reference genes was carried out using Bowtie2 (v2.4.5) ([Langmead and Salzberg, 2012]; [Kim et al., 2015]). Gene expression levels were calculated by RSEM (v1.3.1) ([Li and Dewey, 2011]). Analysis of differential gene expression was performed using edgeR in the Bioconductor software package ([Robinson et al., 2010]). Using a standard protocol, the RNA samples were also examined by reverse transcription and quantitative polymerase chain reaction (RT-qPCR). In brief, for reverse transcription, total RNA (1 μg) and gDNA wiper Mix were incubated at 42°C for 2 min. The samples were immediately incubated with a master mix containing 10 pmol/μL of poly (dT) primers at 37°C for 15 min and 85°C for 5 s. To detect the expression of specific genes by qPCR analysis, gene-specific primers (shown in Supplementary Table S1) were mixed with the ChamQ Universal SYBER qPCR Master Mix and the reaction was conducted using the Roche Lightcycler 480. The GAPDH value was used to normalize the results of each gene. The RNA-seq data of BCP-treated HepG2 cells were screened for DEGs. Gene symbols were turned into Enterz ID using the org.Hs.eg.db Bio-conductor R package. The cluster profiler (v4.6.2) package was used to perform the Kyoto Encyclopedia of Genes and Genomes (KEGG) and Gene Ontology (GO) enrichment analyses ([Wu et al., 2021]). Following the Transcript per million (TPM) data of the dataset, the line chart, and heatmap were plotted using ggplot2 and pheatmap R packages, respectively.

C=C1CC/C=C(\C)CC[C@@H]2[C@@H]1CC2(C)C [BCP, β-caryophyllene]
change RAPGEF3 (gene RAPGEF3, DEG direction): Down | logFC RARRES2 (gene RARRES2, RNA-seq): -0.9419 | change RARRES2 (gene RARRES2, DEG direction): Down | logFC RASSF5 (gene RASSF5, RNA-seq): -1.261 | change RASSF5 (gene RASSF5, DEG direction): Down | logFC RETREG1 (gene RETREG1, RNA-seq): 0.6811 | change RETREG1 (gene RETREG1, DEG direction): Up | logFC RHOB (gene RHOB, RNA-seq): 0.8378 | change RHOB (gene RHOB, DEG direction): Up | logFC RHOBTB1 (gene RHOBTB1, RNA-seq): 0.6316 | change RHOBTB1 (gene RHOBTB1, DEG direction): Up | logFC RILPL2 (gene RILPL2, RNA-seq): -0.6633 | change RILPL2 (gene RILPL2, DEG direction): Down | logFC RNASE4 (gene RNASE4, RNA-seq): -1.067 | change RNASE4 (gene RNASE4, DEG direction): Down | logFC RNF182 (gene RNF182, RNA-seq): 0.812 | change RNF182 (gene RNF182, DEG direction): Up | logFC RNF208 (gene RNF208, RNA-seq): -0.8526 | change RNF208 (gene RNF208, DEG direction): Down | logFC RSPO3 (gene RSPO3, RNA-seq): 1.091 | change RSPO3 (gene RSPO3, DEG direction): Up | logFC RUNDC3B (gene RUNDC3B, RNA-seq): -1.157 | change RUNDC3B (gene RUNDC3B, DEG direction): Down | logFC S100A3 (gene S100A3, RNA-seq): -0.7971 | change S100A3 (gene S100A3, DEG direction): Down | logFC S100A4 (gene S100A4, RNA-seq): -0.5965 | change S100A4 (gene S100A4, DEG direction): Down | logFC SCIN (gene SCIN, RNA-seq): -0.6372 | change SCIN (gene SCIN, DEG direction): Down | logFC SDCCAG8 (gene SDCCAG8, RNA-seq): 0.7756 | change SDCCAG8 (gene SDCCAG8, DEG direction): Up | logFC SEL1L (gene SEL1L, RNA-seq): 0.5873 | change SEL1L (gene SEL1L, DEG direction): Up | logFC SELENOP (gene SELENOP, RNA-seq): 0.7184 | change SELENOP (gene SELENOP, DEG direction): Up | logFC SEMA5A (gene SEMA5A, RNA-seq): 1.3518 | change SEMA5A (gene SEMA5A, DEG direction): Up | logFC SIK2 (gene SIK2, RNA-seq): 0.6807 | change SIK2 (gene SIK2, DEG direction): Up | logFC SLC5A3 (gene SLC5A3, RNA-seq): -0.7077 | change SLC5A3 (gene SLC5A3, DEG direction): Down | logFC SLC9B2 (gene SLC9B2, RNA-seq): -0.6372 | change SLC9B2 (gene SLC9B2, DEG direction): Down | logFC SLC16A6 (gene SLC16A6, RNA-seq): 1.033 | change SLC16A6 (gene SLC16A6, DEG direction): Up | logFC SLC52A3 (gene SLC52A3, RNA-seq): -2.872 | change SLC52A3 (gene SLC52A3, DEG direction): Down | logFC SLCO4A1 (gene SLCO4A1, RNA-seq): -0.7226 | change SLCO4A1 (gene SLCO4A1, DEG direction): Down | logFC SLFN5 (gene SLFN5, RNA-seq): 0.8058 | change SLFN5 (gene SLFN5, DEG direction): Up | logFC SLPI (gene SLPI, RNA-seq): -0.5978 | change SLPI (gene SLPI, DEG direction): Down | logFC SNED1 (gene SNED1, RNA-seq): 0.7039 | change SNED1 (gene SNED1, DEG direction): Up | logFC SNTB1 (gene SNTB1, RNA-seq): 0.7574 | change SNTB1 (gene SNTB1, DEG direction): Up | logFC SORBS2 (gene SORBS2, RNA-seq): 0.9049 | change SORBS2 (gene SORBS2, DEG direction): Up | logFC SPAG16 (gene SPAG16, RNA-seq): 0.7042 | change SPAG16 (gene SPAG16, DEG direction): Up | logFC SPRY4 (gene SPRY4, RNA-seq): -0.9938 | change SPRY4 (gene SPRY4, DEG direction): Down | logFC ST6GALNAC6 (gene ST6GALNAC6, RNA-seq): -0.6732 | change ST6GALNAC6 (gene ST6GALNAC6, DEG direction): Down | logFC STARD10 (gene STARD10, RNA-seq): -0.7468 | change STARD10 (gene STARD10, DEG direction): Down | logFC SULT1A4 (gene SULT1A4, RNA-seq): -0.8677 | change SULT1A4 (gene SULT1A4, DEG direction): Down | logFC SV2B (gene SV2B, RNA-seq): 1.269 | change SV2B (gene SV2B, DEG direction): Up | logFC SYN3 (gene SYN3, RNA-seq): -1.293 | change SYN3 (gene SYN3, DEG direction): Down | logFC TAGLN (gene TAGLN, RNA-seq): 1.297 | change TAGLN (gene TAGLN, DEG direction): Up | logFC TBC1D2 (gene TBC1D2, RNA-seq): 0.6507 | change TBC1D2 (gene TBC1D2, DEG direction): Up | logFC TBC1D17 (gene TBC1D17, RNA-seq): -0.5911 | change TBC1D17 (gene TBC1D17, DEG direction): Down | logFC TCIM (gene TCIM, RNA-seq): 0.8634 | change TCIM (gene TCIM, DEG direction): Up | logFC TCN1 (gene TCN1, RNA-seq): -1.416 | change TCN1 (gene TCN1, DEG direction): Down | logFC TEK (gene TEK, RNA-seq): -1.317 | change TEK (gene TEK, DEG direction): Down | logFC TGFB3 (gene TGFB3, RNA-seq): -0.7747 | change TGFB3 (gene TGFB3, DEG direction): Down | logFC TIMP3 (gene TIMP3, RNA-seq): -1.01 | change TIMP3 (gene TIMP3, DEG direction): Down | logFC TLR4 (gene TLR4, RNA-seq): -0.8506 | change TLR4 (gene TLR4, DEG direction): Down | logFC TM4SF1 (gene TM4SF1, RNA-seq): 0.7666 | change TM4SF1 (gene TM4SF1, DEG direction): Up | logFC TMEM120B (gene TMEM120B, RNA-seq): -0.6536 | change TMEM120B (gene TMEM120B, DEG direction): Down | logFC TNFSF15 (gene TNFSF15, RNA-seq): -1.596 | change TNFSF15 (gene TNFSF15, DEG direction): Down | logFC TNXB (gene TNXB, RNA-seq): -0.7488 | change TNXB (gene TNXB, DEG direction): Down | logFC TPBG (gene TPBG, RNA-seq): -0.9203 | change TPBG (gene TPBG, DEG direction): Down | logFC TRNP1 (gene TRNP1, RNA-seq): -0.8357 | change TRNP1 (gene TRNP1, DEG direction): Down | logFC USH1C (gene USH1C, RNA-seq): 0.9916 | change USH1C (gene USH1C, DEG direction): Up | logFC VAMP1 (gene VAMP1, RNA-seq): -0.8271 | change VAMP1 (gene VAMP1, DEG direction): Down | logFC VSIR (gene VSIR, RNA-seq): -0.6272 | change VSIR (gene VSIR, DEG direction): Down | logFC XYLT1 (gene XYLT1, RNA-seq): 1.184 | change XYLT1 (gene XYLT1, DEG direction): Up | logFC ZBED6CL (gene ZBED6CL, RNA-seq): -0.9925 | change ZBED6CL (gene ZBED6CL, DEG direction): Down | logFC ZNF365 (gene ZNF365, RNA-seq): -1.468 | change ZNF365 (gene ZNF365, DEG direction): Down | logFC ZRANB3 (gene ZRANB3, RNA-seq): 1.008 | change ZRANB3 (gene ZRANB3, DEG direction): Up
